Measured values reported in paper PMC3038607 (Journal of the American Chemical Society, 2011).

Molecular target: T1, dimethylarginine dimethylaminohydrolase (DDAH) (Pseudomonas aeruginosa, UniProt Q9I4E3)
T1 sequence (Q9I4E3 1-254): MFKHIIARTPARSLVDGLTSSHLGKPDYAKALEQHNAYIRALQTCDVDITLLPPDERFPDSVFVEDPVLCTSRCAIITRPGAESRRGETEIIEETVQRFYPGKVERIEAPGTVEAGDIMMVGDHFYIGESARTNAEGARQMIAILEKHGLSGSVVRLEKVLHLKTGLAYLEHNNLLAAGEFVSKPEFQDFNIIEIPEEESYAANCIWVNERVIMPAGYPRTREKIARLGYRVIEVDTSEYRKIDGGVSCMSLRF
Experiment: time-dependent inactivation kinetics
Assay type: biochemical
Settings: read-out: Ki

Compound: Cc1cc(Br)ccn1 [compound 1, 4-bromo-2-methylpyridine]
- KI (inactivation): 2600 ± 800 µM
